How the values were obtained:
[1] = test system: IL-8, MCP-1, MIP-1β; test: Cytokine and chemokine serum levels (multiplex, Luminex) after IV PGG; type: in vivo, human
Experimental: (§1) IPD changes induced by yeast soluble β-glucan were evaluated in a Phase I healthy donor trial, which included three cohorts of 12 healthy human volunteers aged 18-65 years. In Cohort 1, subjects were administered a single dose of 4 mg/kg yeast soluble β-glucan by IV infusion over 2-3 hours. In Cohort 2, subjects were administered 4 mg/kg PGG by IV infusion over 2-3 hours once weekly for 3 weeks. Half of the subjects received premedications which included low dose corticosteroids (4 mg of dexamethasone, PO) and low-dose H1 antagonists (50 mg diphenhydramine.
Subjects were stratified/classified into subgroups based on pre-infusion ABA levels. ABA cutoff levels were selected based on prior studies and are only exemplary. Classification may include only 2 subgroups based on an IgG ABA cutoff level of 15 μg/ml, 20 μg/ml, 25, μg/ml, 30 μg/ml, 35 μg/ml, 40 μg/ml, 45 μg/ml or 50 μg/ml. Classification may also include 3, 4, 5 or more subgroups with each subgroup corresponding to a specific IgG ABA level range. For example, a 3 subgroup classification may include a Low-ABA subgroup encompassing ABA level ranges of <15 μg/ml, <20 μg/ml, <25 μg/ml or <30 μg/ml, a Mid-ABA subgroup encompassing a range having a low end ABA level of 20 μg/ml, 25 μg/ml, 30 μg/ml, 35 μg/ml, 40 μg/ml or 45 μg/ml and a high end ABA level of 30 μg/ml, 35 μg/ml, 40 μg/ml, 45 μg/ml, 50 μg/ml or 55 μg/ml, and a High-ABA subgroup encompassing ABA level ranges of >35 μg/ml, >40 μg/ml, >45 μg/ml, >50 μg/ml, >55 μg/ml, >60 μg/ml, >65 μg/ml or >70 μg/ml. […] Serum and cellular IPD markers were analyzed pre-infusion, 15 minutes, 30 minutes and 1 hour post-infusion, end of infusion (EOI) and 1 hour, 2 hours, 3 hours, 4 hours, 24 hours, 48 hours and 168 hours after EOI.
Cytokine and chemokine serum levels were measured using Novex magnetic multiplex assay (Life Technologies) the Luminex XMAP technology. […]
The effect of premedications on IPD responses was also evaluated. […]

[2] = test system: circulating immune complexes (CIC); test: Circulating immune complex (CIC) formation in serum by ELISA after IV PGG; type: in vivo, human; conditions: single dose PGG IV, at EOI
Experimental: as §1
Subjects were stratified/classified into subgroups based on pre-infusion ABA levels. ABA cutoff levels were selected based on prior studies and are only exemplary. Classification may include only 2 subgroups based on an IgG ABA cutoff level of 15 μg/ml, 20 μg/ml, 25, μg/ml, 30 μg/ml, 35 μg/ml, 40 μg/ml, 45 μg/ml or 50 μg/ml. Classification may also include 3, 4, 5 or more subgroups with each subgroup corresponding to a specific IgG ABA level range. For example, a 3 subgroup classification may include a Low-ABA subgroup encompassing ABA level ranges of <15 μg/ml, <20 μg/ml, <25 μg/ml or <30 μg/ml, a Mid-ABA subgroup encompassing a range having a low end ABA level of 20 μg/ml, 25 μg/ml, 30 μg/ml, 35 μg/ml, 40 μg/ml or 45 μg/ml and a high end ABA level of 30 μg/ml, 35 μg/ml, 40 μg/ml, 45 μg/ml, 50 μg/ml or 55 μg/ml, and a High-ABA subgroup encompassing ABA level ranges of >35 μg/ml, >40 μg/ml, >45 μg/ml, >50 μg/ml, >55 μg/ml, >60 μg/ml, >65 μg/ml or >70 μg/ml. As discussed in International Published Application No. WO2015084732A1, various ABA cutoff levels may be used for reasons such as differences in soluble β-glucan immunotherapy treatments and preferences regarding inclusiveness and exclusiveness of subgroups. […] Serum and cellular IPD markers were analyzed pre-infusion, 15 minutes, 30 minutes and 1 hour post-infusion, end of infusion (EOI) and 1 hour, 2 hours, 3 hours, 4 hours, 24 hours, 48 hours and 168 hours after EOI.
Total CIC formation was measured in serum by ELISA (Quidel).

[3] = test system: neutrophils, monocytes, B cells and subsets of dendritic cells (DC); test: In vivo immune cell binding by flow cytometry from whole blood at EOI; parameters: species or system human; conditions: High-ABA subjects, anti-PGG MAb staining
Experimental: In vivo immune cell binding was assessed by flow cytometry from whole blood of subjects dosed with PGG at the EOI. Gates were set based on BFDPV staining (anti-PGG MAb) on blood cells prior to infusion.

## β(1,6)-[poly-(1,3)-D-glucopyranosyl]-poly-β(1,3)-D-glucopyranose [PGG]
[1]; Mid-ABA and High-ABA subjects, dexamethasone and diphenhydramine premedication vs none
  PGG-mediated cytokine induction (IL-8) with premedications: dampened
[1]; pre-dose to end of infusion, healthy subjects
  increases in cytokine and chemokine serum levels, especially IL-8 and MCP-1: consistently detected
[1]; two High-ABA subjects, weekly dosing, after week 2 infusion
  acute IPD response in IL-8, MCP-1 and MIP-1 levels: acute IPD response was seen
[2]; High-ABA subjects
  increase in CIC: the highest increase in CIC
[2]; Low-ABA subjects
  increase in CIC: little increase in CIC
[2]; Mid-ABA subjects
  increase in CIC: a greater increase in CIC
[3]
  in vivo immune cell binding: bound to neutrophils, monocytes, B cells and subsets of dendritic cells (DC)
